This is an account of results in US5846720A, “Methods of determining chemicals that modulate expression of genes associated with cardiovascular disease” (Oncogene Science, Inc., priority 1996, dated 1998).

The structures appear in SMILES notation.

The test system of one data set is MMTV promoter. The data set is described as follows: MMTV promoter/luciferase reporter assay (high-throughput screen I, control for specificity), M10 cells. Particulars: Table 2, 6 h incubation; for MMTV fold induction relative to solvent control: transcriptional activators, original high-throughput assay; for MMTV fold inhibition relative to solvent control: transcriptional inhibitors. In kind it is cell-based, mouse.

Another data set has as its system G-CSF promoter. The data set is described as follows: G-CSF promoter/luciferase reporter assay (high-throughput screen I), G21 cells. Particulars: Table 2, 6 h incubation; for GCSF fold induction relative to solvent control: transcriptional activators; for GCSF fold inhibition relative to solvent control: transcriptional inhibitors.
Another data set concerns hGH promoter. The data set is described as follows: hGH promoter/luciferase reporter assay (high-throughput screen I), 532 cells. It is filed as cell-based, rat. The conditions noted are these: Table 2, 6 h incubation; for hGH fold induction relative to solvent control: transcriptional activators; for hGH fold inhibition relative to solvent control: transcriptional inhibitors. The text has this: 6. a GC rat pituitary cell line, transfected with the growth hormone reporter plasmid, designated 532, deposited under ATCC Accession No. CRL 10663.

`COc1c(F)cc(Br)cc1[N+](=O)[O-]` [Chemical 2030]: the “MMTV fold induction relative to solvent control” value with MMTV promoter was 0.87 fold. In addition, the “GCSF fold induction relative to solvent control” value with G-CSF promoter is 5.53 fold. Moreover, in the data set on hGH promoter, the “hGH fold induction relative to solvent control” value came to 0.67 fold.

Turning to `O=C(O)c1ccc(Br)o1` [Chemical 2035], in the data set with MMTV promoter, the “MMTV fold inhibition relative to solvent control” value is reported as 0.89 fold. Also, in the data set with G-CSF promoter, the “GCSF fold inhibition relative to solvent control” value worked out at 0.57 fold. The “hGH fold inhibition relative to solvent control” value in the data set on hGH promoter is listed as 7.14 fold.

`Nc1nc2c(nc(Br)n2[C@@H]2O[C@H](CO)[C@@H](O)[C@H]2O)c(=O)[nH]1` [Chemical 2036]: the “MMTV fold inhibition relative to solvent control” value with MMTV promoter came out at 0.81 fold. Moreover, the “GCSF fold inhibition relative to solvent control” value in the data set with G-CSF promoter is 0.58 fold. Also, in the data set with hGH promoter, the “hGH fold inhibition relative to solvent control” value is 4.34 fold.

As to `CCCCCCCCCCCCCCCCBr` [Chemical 2037], in the data set on MMTV promoter, the “MMTV fold inhibition relative to solvent control” value is 0.50 fold. For the same compound, in the data set on G-CSF promoter, the “GCSF fold inhibition relative to solvent control” value amounted to 0.51 fold. The “hGH fold inhibition relative to solvent control” value in the data set with hGH promoter came out at 4.00 fold.

`COc1cc2oc(=O)cc(CBr)c2cc1OC` [Chemical 2064]: the “MMTV fold induction relative to solvent control” value in the data set with MMTV promoter turned out to be 2.53 fold. For the same compound, in the data set with G-CSF promoter, the “GCSF fold induction relative to solvent control” value amounted to 0.82 fold. Besides, the “hGH fold induction relative to solvent control” value in the data set on hGH promoter was determined as 1.10 fold.

Take `Cc1n[nH]cc1Br` [Chemical 2082]: the “MMTV fold inhibition relative to solvent control” value in the data set on MMTV promoter was 1.23 fold. Besides, in the data set with G-CSF promoter, the “GCSF fold inhibition relative to solvent control” value was determined as 5.26 fold. Further, the “hGH fold inhibition relative to solvent control” value with hGH promoter is given as 0.65 fold.

On to `CC(CCl)CBr` (stereo not drawn) [Chemical 2096], for which the “MMTV fold induction relative to solvent control” value with MMTV promoter was found to be 0.89 fold. The “GCSF fold induction relative to solvent control” value in the data set on G-CSF promoter came out at 3.27 fold. Also, the “hGH fold induction relative to solvent control” value with hGH promoter is recorded as 0.61 fold.

On to `ClCCCCCBr` [Chemical 2097], for which the “MMTV fold induction relative to solvent control” value in the data set on MMTV promoter came out at 1.22 fold. In addition, the “GCSF fold induction relative to solvent control” value in the data set on G-CSF promoter came out at 5.09 fold. Also, in the data set on hGH promoter, the “hGH fold induction relative to solvent control” value was 0.88 fold.

`OCc1cccc(Cl)c1` [Chemical 2121]: the “MMTV fold inhibition relative to solvent control” value in the data set with MMTV promoter was determined as 1.14 fold. For the same compound, in the data set on G-CSF promoter, the “GCSF fold inhibition relative to solvent control” value was 4.76 fold. Besides, the “hGH fold inhibition relative to solvent control” value with hGH promoter is 0.40 fold.

For `ClCc1ccc(Cl)cc1` [Chemical 2129], in the data set on MMTV promoter, the “MMTV fold induction relative to solvent control” value was 0.95 fold. Moreover, in the data set with G-CSF promoter, the “GCSF fold induction relative to solvent control” value is 3.23 fold. In addition, the “hGH fold induction relative to solvent control” value in the data set on hGH promoter came out at 0.75 fold.

As for `O=C1CCCCC1Cl` (stereo not drawn) [Chemical 2148], in the data set on MMTV promoter, the “MMTV fold induction relative to solvent control” value was determined as 2.82 fold. In addition, the “GCSF fold induction relative to solvent control” value in the data set with G-CSF promoter came out at 0.45 fold. For the same compound, the “hGH fold induction relative to solvent control” value with hGH promoter is 0.92 fold.

`O=C(N[C@H](CO)[C@H](O)c1ccc([N+](=O)[O-])cc1)C(Cl)Cl` [Chemical 2191]: the “MMTV fold induction relative to solvent control” value in the data set with MMTV promoter stood at 7.32 fold. For the same compound, in the data set with G-CSF promoter, the “GCSF fold induction relative to solvent control” value turned out to be 0.37 fold. The “hGH fold induction relative to solvent control” value in the data set on hGH promoter is 0.35 fold.

In the case of `CC(=O)n1ccnc1` [Chemical #58, 1-Acetylimidazole], the “MMTV fold induction relative to solvent control” value in the data set with MMTV promoter is listed as 0.42 fold. The “GCSF fold induction relative to solvent control” value in the data set with G-CSF promoter stood at 6.03 fold. The “hGH fold induction relative to solvent control” value in the data set with hGH promoter worked out at 0.17 fold.

On to `Nc1nc(=O)n([C@H]2C[C@H](O)[C@@H](CO)O2)cc1Br` [Chemical #542, 5-Bromo-2'-deoxycytidine], for which the “MMTV fold induction relative to solvent control” value in the data set with MMTV promoter came out at 1.26 fold. In the data set on G-CSF promoter, the “GCSF fold induction relative to solvent control” value was found to be 6.28 fold. Besides, the “hGH fold induction relative to solvent control” value in the data set with hGH promoter is on record as 1.08 fold.

For `O=c1[nH]c(=O)n([C@H]2C[C@H](O)[C@@H](CO)O2)cc1Br` [Chemical #543, 5-Bromo-2'-deoxyuridine], the “MMTV fold induction relative to solvent control” value in the data set with MMTV promoter was determined as 0.98 fold. In the data set on G-CSF promoter, the “GCSF fold induction relative to solvent control” value is given as 7.17 fold. For the same compound, in the data set with hGH promoter, the “hGH fold induction relative to solvent control” value was found to be 0.72 fold.
